In one experiment the target is T1, sGC α1/β1 heterodimer (Homo sapiens, UniProt Q02108+Q02153).
T1 construct: expressed in transfected cells
T1 sequence (Q02108 1-690): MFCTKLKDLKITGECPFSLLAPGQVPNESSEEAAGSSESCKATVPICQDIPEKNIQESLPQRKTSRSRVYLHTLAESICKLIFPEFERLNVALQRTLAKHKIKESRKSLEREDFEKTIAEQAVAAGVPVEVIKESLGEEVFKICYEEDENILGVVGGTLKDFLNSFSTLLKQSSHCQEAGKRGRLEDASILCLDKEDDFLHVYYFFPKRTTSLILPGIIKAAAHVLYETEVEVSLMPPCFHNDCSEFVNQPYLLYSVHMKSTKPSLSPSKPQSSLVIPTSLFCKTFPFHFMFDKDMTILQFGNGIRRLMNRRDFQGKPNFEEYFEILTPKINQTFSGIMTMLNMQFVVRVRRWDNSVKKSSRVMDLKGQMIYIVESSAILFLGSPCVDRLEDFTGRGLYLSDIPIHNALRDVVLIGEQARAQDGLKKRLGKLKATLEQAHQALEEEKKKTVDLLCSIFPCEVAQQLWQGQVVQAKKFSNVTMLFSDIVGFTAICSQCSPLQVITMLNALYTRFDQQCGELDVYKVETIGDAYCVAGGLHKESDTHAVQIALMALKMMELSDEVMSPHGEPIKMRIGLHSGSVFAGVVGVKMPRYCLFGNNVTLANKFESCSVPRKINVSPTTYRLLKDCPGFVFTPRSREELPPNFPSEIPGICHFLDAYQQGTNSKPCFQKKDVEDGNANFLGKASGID
T1 sequence (Q02153 1-619): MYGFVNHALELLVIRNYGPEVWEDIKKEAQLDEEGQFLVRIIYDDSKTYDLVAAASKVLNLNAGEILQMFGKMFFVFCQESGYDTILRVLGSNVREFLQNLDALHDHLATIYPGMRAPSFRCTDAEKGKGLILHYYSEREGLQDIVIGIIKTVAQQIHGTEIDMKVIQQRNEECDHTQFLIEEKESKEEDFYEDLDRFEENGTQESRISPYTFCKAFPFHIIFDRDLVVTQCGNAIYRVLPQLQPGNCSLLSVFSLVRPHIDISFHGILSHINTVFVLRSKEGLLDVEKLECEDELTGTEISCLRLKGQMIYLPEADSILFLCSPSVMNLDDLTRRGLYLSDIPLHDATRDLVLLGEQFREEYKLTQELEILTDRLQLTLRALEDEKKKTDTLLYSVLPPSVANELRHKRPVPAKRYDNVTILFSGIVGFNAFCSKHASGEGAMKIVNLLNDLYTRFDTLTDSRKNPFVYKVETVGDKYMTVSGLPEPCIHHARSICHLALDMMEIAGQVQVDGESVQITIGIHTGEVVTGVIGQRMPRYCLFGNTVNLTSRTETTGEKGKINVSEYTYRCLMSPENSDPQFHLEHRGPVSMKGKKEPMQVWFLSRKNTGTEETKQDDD
Description: Cell-Based sGC Functional Assay (CASA Assay), cGMP generation in CHO-K1/sGC cells.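 Further: reference Compound A is a published heme-dependent sGC activator.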 The conditions noted are these: maximum cGMP production of Compound A set to 100% activation, read-out: % Act. (percent activation relative to Compound A). The essentials: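 Intracellular cGMP quantified by HTRF competition after 1 h, 37 °C compound exposure, with or without 1 μM DETA-NO, in stable CHO-K1/sGC α1/β1 cells (4×10^5/mL; buffer with 0.5 mM IBMX, 5 mM MgCl2, 10 mM HEPES, 0.05% BSA; 2.5% DMSO). Activation normalized to reference Compound A maximum; 4P fit.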

The test system of experiment [1] is Spontaneously hypertensive rats (SHR). Description: Acute Efficacy in Spontaneously Hypertensive Rats (SHR), telemetry blood pressure. The class given is in vivo, rat. Conditions: single oral gavage. The essentials:
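Male SHR fitted with aortic telemetry transmitters and recovered 14 days; conscious blood pressure sampled 30 s every 10 min. Single oral gavage dose (vehicle 10% transcutol/20% Cremophor/70% water); hourly SBP change versus prior-day vehicle baseline, reported as maximum peak decrease.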

For the compound `CC1(c2ccc(F)cn2)C(=O)Nc2nc(-c3cn4ncnc4c(CCCC(F)(F)F)n3)nc(O)c21` (centres unmarked) [Example 136B, 5-(5-fluoropyridin-2-yl)-4-hydroxy-5-methyl-2-(8-(4,4,4-trifluorobutyl)-[1,2,4]triazolo[1,5-a]pyrazin-6-yl)-5H-pyrrolo[2,3-d]pyrimidin-6(7H)-one], on sGC α1/β1 heterodimer, the Emax turned out to be 69%. Besides, the “Maximum peak decrease of systolic blood pressure (SBP) in SHR, Cat.” value (from here on “Maximum peak decrease”) in experiment [1] (P.O. 3 mpk) was “B (Category B=SBP in SHRs 20-40 mmHg)”.
For `CC1(c2ccc(Cl)c(F)c2)C(=O)Nc2nc(-c3cn4ncnc4c(CCCC(F)(F)F)n3)nc(O)c21` (centres unmarked) [Example 138B, 5-(4-chloro-3-fluorophenyl)-4-hydroxy-5-methyl-2-(8-(4,4,4-trifluorobutyl)-[1,2,4]triazolo[1,5-a]pyrazin-6-yl)-5H-pyrrolo[2,3-d]pyrimidin-6(7H)-one], the Emax at sGC α1/β1 heterodimer was 164%. For the same compound, in experiment [1] (P.O. 1 mpk), the “Maximum peak decrease” value is recorded as “C (Category C=SBP in SHRs >40 mmHg)”.
For `O=C1Nc2nc(-c3cn4ncnc4c(CCCC(F)(F)F)n3)nc(O)c2C1(c1ccc(Cl)cc1)C1CC1` (centres unmarked) [Example 140B, 5-(4-chlorophenyl)-5-cyclopropyl-4-hydroxy-2-(8-(4,4,4-trifluorobutyl)-[1,2,4]triazolo[1,5-a]pyrazin-6-yl)-5H-pyrrolo[2,3-d]pyrimidin-6(7H)-one] the same measures were 150% and “A (Category A=SBP in SHRs <20 mmHg)”.
For `O=C1Nc2nc(-c3cn4ncnc4c(CCCC(F)(F)F)n3)nc(O)c2C1(c1ccc(F)c(F)c1)C1CC1` (centres unmarked) [Example 141A, 5-cyclopropyl-5-(3,4-difluorophenyl)-4-hydroxy-2-(8-(4,4,4-trifluorobutyl)-[1,2,4]triazolo[1,5-a]pyrazin-6-yl)-5H-pyrrolo[2,3-d]pyrimidin-6(7H)-one] the same measures were 133% and “B (Category B=SBP in SHRs 20-40 mmHg)”.
`CC1(c2ccc(Cl)cc2)C(=O)Nc2nc(-c3cn4ncnc4c(CCCC(F)(F)F)n3)nc(O)c21` (centres unmarked) [Example 142A, 5-(4-chlorophenyl)-4-hydroxy-5-methyl-2-(8-(4,4,4-trifluorobutyl)-[1,2,4]triazolo[1,5-a]pyrazin-6-yl)-5H-pyrrolo[2,3-d]pyrimidin-6(7H)-one]: on sGC α1/β1 heterodimer, the Emax stood at 137%. The “Maximum peak decrease” value in experiment [1] (P.O. 0.3 mpk) is on record as “B (Category B=SBP in SHRs 20-40 mmHg)”.
Regarding `CC1(c2ccccc2)C(=O)Nc2nc(-c3cn4ncnc4c(CCCC(F)(F)F)n3)nc(O)c21` (centres unmarked) [Example 143B, 4-hydroxy-5-methyl-5-phenyl-2-(8-(4,4,4-trifluorobutyl)-[1,2,4]triazolo[1,5-a]pyrazin-6-yl)-5H-pyrrolo[2,3-d]pyrimidin-6(7H)-one], the Emax at sGC α1/β1 heterodimer was 114%. Also, the “Maximum peak decrease” value in experiment [1] (P.O. 1 mpk) is “B (Category B=SBP in SHRs 20-40 mmHg)”.
In the case of `CC1(c2ccc(F)c(F)c2)C(=O)Nc2nc(-c3cn4ncnc4c(CCCC(F)(F)F)n3)nc(O)c21` (centres unmarked) [Example 146B, 5-(3,4-difluorophenyl)-4-hydroxy-5-methyl-2-(8-(4,4,4-trifluorobutyl)-[1,2,4]triazolo[1,5-a]pyrazin-6-yl)-5H-pyrrolo[2,3-d]pyrimidin-6(7H)-one], at sGC α1/β1 heterodimer, the Emax was 154%. For the same compound, the “Maximum peak decrease” value in experiment [1] (P.O. 0.3 mpk) is listed as “B (Category B=SBP in SHRs 20-40 mmHg)”.
On to `C[C@@]1(c2ccc(F)cc2)C(=O)Nc2nc(-c3cn4ncnc4c(CCC(F)(F)F)n3)nc(O)c21` [Example 151A, (S)-5-(4-fluroophenyl)-4-hydroxy-5-methyl-2-(8-(3,3,3-trifluoropropyl)-[1,2,4]triazolo[1,5-a]pyrazin-6-yl)-5,7-dihydro-6H-pyrrolo[2,3-d]pyrimidin-6-one], for which the Emax at sGC α1/β1 heterodimer was found to be 120%. The “Maximum peak decrease” value in experiment [1] (P.O. 3 mpk) is “B (Category B=SBP in SHRs 20-40 mmHg)”.
Turning to `CC1(c2ccc(Cl)cc2)C(=O)Nc2nc(-c3cn4ncnc4c(CCC(F)(F)F)n3)nc(O)c21` (centres unmarked) [Example 152A, 5-(4-chlorophenyl)-4-hydroxy-5-methyl-2-(8-(3,3,3-trifluoropropyl)-[1,2,4]triazolo[1,5-a]pyrazin-6-yl)-5H-pyrrolo[2,3-d]pyrimidin-6(7H)-one], on sGC α1/β1 heterodimer, the Emax is 70%. Besides, in experiment [1] (P.O. 3 mpk), the “Maximum peak decrease” value was “B (Category B=SBP in SHRs 20-40 mmHg)”.
As to `CCCCc1nc(-c2nc(O)c3c(n2)NC(=O)[C@@]3(C)c2ccc(F)cc2)cn2ncnc12` [Example 154A, (S)-2-(8-butyl-[1,2,4]triazolo[1,5-a]pyrazin-6-yl)-5-(4-fluorophenyl)-4-hydroxy-5-methyl-5,7-dihydro-6H-pyrrolo[2,3-d]pyrimidin-6-one], the Emax on sGC α1/β1 heterodimer was 100%. Further, the “Maximum peak decrease” value in experiment [1] (P.O. 0.3 mpk) was “B (Category B=SBP in SHRs 20-40 mmHg)”.
Turning to `CCCCc1nc(-c2nc(O)c3c(n2)NC(=O)C3(C)c2ccc(F)cn2)cn2ncnc12` (centres unmarked) [Example 155B, 2-(8-butyl-[1,2,4]triazolo[1,5-a]pyrazin-6-yl)-5-(5-fluoropyridin-2-yl)-4-hydroxy-5-methyl-5H-pyrrolo[2,3-d]pyrimidin-6(7H)-one], on sGC α1/β1 heterodimer, the Emax was 159%. The “Maximum peak decrease” value in experiment [1] (P.O. 1 mpk) is “B (Category B=SBP in SHRs 20-40 mmHg)”.
For `CCCCc1nc(-c2nc(O)c3c(n2)NC(=O)C3(C)c2ccc(Cl)c(F)c2)cn2ncnc12` (centres unmarked) [Example 156B, 2-(8-butyl-[1,2,4]triazolo[1,5-a]pyrazin-6-yl)-5-(4-chloro-3-fluorophenyl)-4-hydroxy-5-methyl-5H-pyrrolo[2,3-d]pyrimidin-6(7H)-one], the Emax at sGC α1/β1 heterodimer was determined as 102%. In experiment [1] (P.O. 0.3 mpk), the “Maximum peak decrease” value is “C (Category C=SBP in SHRs >40 mmHg)”.
As to `CCCCc1nc(-c2nc(O)c3c(n2)NC(=O)C3(C)c2ccc(F)c(F)c2)cn2ncnc12` (centres unmarked) [Example 158B, 2-(8-butyl-[1,2,4]triazolo[1,5-a]pyrazin-6-yl)-5-(3,4-difluorophenyl)-4-hydroxy-5-methyl-5H-pyrrolo[2,3-d]pyrimidin-6(7H)-one], the Emax at sGC α1/β1 heterodimer stood at 232%. Also, the “Maximum peak decrease” value in experiment [1] (P.O. 0.3 mpk) is “C (Category C=SBP in SHRs >40 mmHg)”.
In the same order, the values of `CCCCc1nc(-c2nc(O)c3c(n2)NC(=O)C3(C)c2ccc(Cl)cn2)cn2ncnc12` (centres unmarked) [Example 160A, 2-(8-butyl-[1,2,4]triazolo[1,5-a]pyrazin-6-yl)-5-(5-chloropyridin-2-yl)-4-hydroxy-5-methyl-5H-pyrrolo[2,3-d]pyrimidin-6(7H)-one] are 96% and “B (Category B=SBP in SHRs 20-40 mmHg)”.
`CCCc1nc(-c2nc(O)c3c(n2)NC(=O)C3(C)c2ccc(Cl)cc2)cn2ncnc12` (centres unmarked) [Example 164A, 5-(4-chlorophenyl)-4-hydroxy-5-methyl-2-(8-propyl-[1,2,4]triazolo[1,5-a]pyrazin-6-yl)-5H-pyrrolo[2,3-d]pyrimidin-6(7H)-one]: the Emax on sGC α1/β1 heterodimer was found to be 253%. Moreover, in experiment [1] (P.O. 2 mpk), the “Maximum peak decrease” value is recorded as “B (Category B=SBP in SHRs 20-40 mmHg)”.
In the case of `CCCc1nc(-c2nc(O)c3c(n2)NC(=O)[C@@]3(C)c2ccc(F)cc2)cn2ncnc12` [Example 165A, (S)-5-(4-fluorophenyl)-4-hydroxy-5-methyl-2-(8-propyl-[1,2,4]triazolo[1,5-a]pyrazin-6-yl)-5,7-dihydro-6H-pyrrolo[2,3-d]pyrimidin-6-one], the Emax at sGC α1/β1 heterodimer is 114%. Also, in experiment [1] (P.O. 3 mpk), the “Maximum peak decrease” value was “B (Category B=SBP in SHRs 20-40 mmHg)”.
